The values below come from US12459952B2, “TREM2 modulators” (Muna Therapeutics ApS, priority 2024, dated 2025).

In this assay the target is T1, Human TREM2 (Homo sapiens, UniProt Q9NZC2).
T1 construct: expressed in transfected cells
Nature of the assay: Human TREM2 cellular phospho-Syk AlphaLISA assay in HEK293/DAP12+TREM2 stable cell line. In kind it is cell-based. The settings on record: HEK293/DAP12+TREM2 cells; for Emax: maximal response relative to the maximal response of the reference agonist, phospho-Syk AlphaLISA; for EC50: phospho-Syk (Tyr525/526) AlphaLISA signal, 30 min incubation. The source says:
Human TREM2, in vitro Measurement of Triggering Receptor Expressed on Myeloid Cells 2 activity using cellular phosphorylation of Spleen Tyrosine Kinase (“Syk”) Assay
HEK-293 cells were co-transfected with separate plasmids encoding TREM2 and DAP12 to generate a stable cell line. After antibiotic selection, functional clone pool analysis and two successive limiting dilutions, the final clone “HEK293/DAP12+TREM2” underwent a qPCR analysis and a pharmacological validation.
TREM2 signaling through DAP12 was monitored in the HEK293/DAP12+TREM2 stable cell line by measuring the phosphorylation levels of the Syk kinase using the commercially available AlphaLISA SureFire Ultra p-SYK (Tyr525/526) Assay Kit (PerkinElmer #ALSU-PSYK), based on the Perkin Elmer AlphaScreen/AlphaLISA technology.
Compounds are transferred to the test plate and tested in full dose response, 8 concentrations in quadruplicate data points. Compound serial dilutions were performed at Cybi-Felix instrument in 100% DMSO and the dose response curves were assembled in automated fashion in 384MPT at Hamilton STARlet instrument. All the stock solutions were prepared at 20 mM in 100% DMSO. For compounds testing, the starting concentration was 100 μM, dilution steps 1:6. A different concentration's range was adapted for compound's activity based on the preliminary results. Finally, a 384MPT reformatted for all compounds at 8 concentrations, quadruplicates, was used as “mother to child” process with a CyBi@-Well dispenser in which 1 μL of each compound was moved into a destination plate pre-filled with […] of EMEM cell culture medium (BIOWHITTAKER_cat.BE12-125F), thus obtaining 3× concentrated compounds working solution. In columns 1-2 and 23-24 the control wells were added. In particular, dose response curves of a reference control agonist were included in column 1 and 24 as reference control agonist (Reference control agonists used include Human TREM2 polyclonal Antibody AF1828: R&D Systems; Human TREM2 monoclonal Antibody MAB1828: R&D Systems). The dose response curves were tested starting at 30 μM, dilution step 1:6. Both “source” compound plate and “destination” compound plate were barcoded and a relationship between the two plates was thus generated.
HEK293/DAP12+TREM2 cells were cultured in EMEM medium supplemented with IX Penicillin/Streptomycin (BIOWHITTAKER_cat.DE17-602E), ULTRAGLUTAMINE I 200 mM, 10% Fetal Bovine Serum plus antibiotics referred to as “HEK293 Culture Medium”. The day before the experiment, cells were detached by gentle wash with DPBS, followed by 5 min incubation at 37° C. with Trypsin solution. Cells were then diluted in HEK293 Culture Medium without antibiotics, counted and seeded into 384-well poly-D-Lysine coated microplates black/clear bottom (GREINER 781946) at a density of 10,000 cells/well in 25 μL/well by the use of a MATRIX WellMate dispenser. Plates were placed into a humidified cell culture incubator at 37° C. with 5% CO2 until the experimental day. 20-24 hours after seeding mature medium was removed and replaced with 10 μL/well of EMEM cell medium supplemented with 0.1% Pluronic F-68 non-ionic surfactant (Thermofisher, 24040032), referred to as “Assay Buffer”, using the CyBi@-Well instrument. Then 5 μL/well of Assay Buffer containing 3× concentrated test compounds or the reference control agonist (in 0.5% final DMSO concentration) were added to the cells with the CyBi@-Well instrument. Cell plates were incubated for 30 min into a humidified cell culture incubator at 37° C. with 5% CO2, then the medium was removed by manually discard. 20 μL/well of lysis buffer were dispensed using the CyBi@-Well instrument and plates were incubated for 10 min at room temperature on a plate shaker (350 rpm). Then, 10 μL/well of lysate were transferred to the Alpha plates.
The CyBi@-Well instrument was used to dispense 5 μL/well of AlphaLISA Acceptor Bead Solution in IX Immunoassay buffer (Perkin Elmer AL000F). […]

T1 sequence (Q9NZC2 19-230): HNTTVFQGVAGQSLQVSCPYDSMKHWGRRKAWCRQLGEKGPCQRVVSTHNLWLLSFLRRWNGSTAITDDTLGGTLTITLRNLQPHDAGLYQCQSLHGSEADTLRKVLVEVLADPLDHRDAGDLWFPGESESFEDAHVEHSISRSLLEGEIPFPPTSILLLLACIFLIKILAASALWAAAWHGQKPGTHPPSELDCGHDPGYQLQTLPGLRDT
T1 sequence (O43914 22-113 partner): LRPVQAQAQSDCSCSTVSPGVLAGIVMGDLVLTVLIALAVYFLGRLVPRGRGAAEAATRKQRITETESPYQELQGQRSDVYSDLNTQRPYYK

For orientation: Emax means the size of the effect at its maximum, as opposed to the concentration needed. One may read the EC50 as the concentration that produces a half-maximal response. A high value points to a less potent agent. Turning to `Cc1nn(C)cc1OC1CN(c2nc(-c3ccc(C#N)cc3F)c3nc(C(F)(F)F)n(C)c(=O)c3n2)C1` [Example 10, 4-(2-(3-((1,3-dimethyl-1H-pyrazol-4-yl)oxy)azetidin-1-yl)-7-methyl-8-oxo-6-(trifluoromethyl)-7,8-dihydropyrimido[5,4-d]pyrimidin-4-yl)-3-fluorobenzonitrile], the Emax was below 75% and the EC50 is 100 to 1000 nM.

Molecule `Cn1c(C(F)(F)F)nc2c(-c3ccc(C#N)cc3F)nc(N3CC(Oc4ccnc(OC(F)F)c4)C3)nc2c1=O` [Example 24, 4-(2-(3-((2-(difluoromethoxy)pyridin-4-yl)oxy)azetidin-1-yl)-7-methyl-8-oxo-6-(trifluoromethyl)-7,8-dihydropyrimido[5,4-d]pyrimidin-4-yl)-3-fluorobenzonitrile] returned an Emax of 75 to 110% and an EC50 of 10 to 100 nM.

`COc1ccc(-c2nc(N3CC(Oc4cnn(C5CC5)c4)C3)nc3c(=O)n(C)c(C(F)(F)F)nc23)cn1` [Example 37, 6-(3-((1-cyclopropyl-1H-pyrazol-4-yl)oxy)azetidin-1-yl)-8-(6-methoxypyridin-3-yl)-3-methyl-2-(trifluoromethyl)pyrimido[5,4-d]pyrimidin-4(3H)-one] had an Emax of 75 to 110% and an EC50 of 100 to 1000 nM.

Take `Cc1ncc(OC2CN(c3nc(-c4ccc(C#N)cc4F)c4nc(C(F)(F)F)n(C)c(=O)c4n3)C2)cn1` [Example 28, 3-fluoro-4-(7-methyl-2-(3-((2-methylpyrimidin-5-yl)oxy)azetidin-1-yl)-8-oxo-6-(trifluoromethyl)-7,8-dihydropyrimido[5,4-d]pyrimidin-4-yl)benzonitrile]: the Emax was below 75% and the EC50 lay within 100 to 1000 nM.

`Cc1n[nH]c(C)c1OC1CN(c2nc(-c3ccc(C#N)cc3F)c3nc(C(F)(F)F)n(C)c(=O)c3n2)C1` [Example 9, 4-(2-(3-((3,5-dimethyl-1H-pyrazol-4-yl)oxy)azetidin-1-yl)-7-methyl-8-oxo-6-(trifluoromethyl)-7,8-dihydropyrimido[5,4-d]pyrimidin-4-yl)-3-fluorobenzonitrile] showed an Emax of 75 to 110% and an EC50 of 100 to 1000 nM.

In turn, `Cn1c(C(F)(F)F)nc2c(-c3ccc(C#N)cc3F)nc(N3CC(Oc4ccnc(C#N)c4)C3)nc2c1=O` [Example 20, 4-((1-(4-(4-cyano-2-fluorophenyl)-7-methyl-8-oxo-6-(trifluoromethyl)-7,8-dihydropyrimido[5,4-d]pyrimidin-2-yl)azetidin-3-yl)oxy)picolinonitrile] displayed an Emax of 75 to 110% and an EC50 of 10 to 100 nM.

The molecule `Cc1ncncc1OC1CN(c2nc(-c3ccc(C#N)cc3F)c3nc(C(F)(F)F)n(C)c(=O)c3n2)C1` [Example 29, 3-fluoro-4-(7-methyl-2-(3-((4-methylpyrimidin-5-yl)oxy)azetidin-1-yl)-8-oxo-6-(trifluoromethyl)-7,8-dihydropyrimido[5,4-d]pyrimidin-4-yl)benzonitrile] yielded an Emax below 75% and an EC50 of 100 to 1000 nM.

`CC(C)n1cc(OC2CN(c3nc(-c4ccc(C#N)cc4F)c4nc(C(F)(F)F)n(C)c(=O)c4n3)C2)cn1` [Example 11, 3-fluoro-4-(2-(3-((1-isopropyl-1H-pyrazol-4-yl)oxy)azetidin-1-yl)-7-methyl-8-oxo-6-(trifluoromethyl)-7,8-dihydropyrimido[5,4-d]pyrimidin-4-yl)benzonitrile]: the Emax lay within 75 to 110% and the EC50 lay in the range of 10 to 100 nM.

With `Cn1c(C(F)(F)F)nc2c(-c3ccc(C#N)cc3F)nc(N3CC(Oc4cnn(C5CCC5)c4)C3)nc2c1=O` [Example 16, 4-(2-(3-((1-cyclobutyl-1H-pyrazol-4-yl)oxy)azetidin-1-yl)-7-methyl-8-oxo-6-(trifluoromethyl)-7,8-dihydropyrimido[5,4-d]pyrimidin-4-yl)-3-fluorobenzonitrile], the Emax lay in the range of 75 to 110% and the EC50 was in the range of 10 to 100 nM.

`Cn1c(C(F)(F)F)nc2c(-c3ccc(C#N)cc3F)nc(N3CC(Oc4nncs4)C3)nc2c1=O` [Example 2, 4-(2-(3-((1,3,4-thiadiazol-2-yl)oxy)azetidin-1-yl)-7-methyl-8-oxo-6-(trifluoromethyl)-7,8-dihydropyrimido[5,4-d]pyrimidin-4-yl)-3-fluorobenzonitrile] had an Emax below 75% and an EC50 above 1000 nM.

Turning to `Cn1c(C(F)(F)F)nc2c(-c3ccc(C#N)cc3F)nc(N3CC(Oc4cncnc4)C3)nc2c1=O` [Example 27, 3-fluoro-4-(7-methyl-8-oxo-2-(3-(pyrimidin-5-yloxy)azetidin-1-yl)-6-(trifluoromethyl)-7,8-dihydropyrimido[5,4-d]pyrimidin-4-yl)benzonitrile], the Emax was below 75% and the EC50 is 100 to 1000 nM.

For the molecule `Cc1nnc(OC2CN(c3nc(-c4ccc(C#N)cc4F)c4nc(C(F)(F)F)n(C)c(=O)c4n3)C2)s1` [Example 3, 3-fluoro-4-(7-methyl-2-(3-((5-methyl-1,3,4-thiadiazol-2-yl)oxy)azetidin-1-yl)-8-oxo-6-(trifluoromethyl)-7,8-dihydropyrimido[5,4-d]pyrimidin-4-yl)benzonitrile], the maximal response (Emax) is below 75% and the EC50 lay in the range of 100 to 1000 nM.

Take `Cn1c(C(F)(F)F)nc2c(-c3ccc(C#N)cc3F)nc(N3CC(Oc4ccnc(C(F)F)c4)C3)nc2c1=O` [Example 23, 4-(2-(3-((2-(difluoromethyl)pyridin-4-yl)oxy)azetidin-1-yl)-7-methyl-8-oxo-6-(trifluoromethyl)-7,8-dihydropyrimido[5,4-d]pyrimidin-4-yl)-3-fluorobenzonitrile]: the Emax lay within 75 to 110% and the EC50 was 10 to 100 nM.

The molecule `Cc1c(OC2CN(c3nc(-c4ccc(C#N)cc4F)c4nc(C(F)(F)F)n(C)c(=O)c4n3)C2)cnn1C` [Example 8, 4-(2-(3-((1,5-dimethyl-1H-pyrazol-4-yl)oxy)azetidin-1-yl)-7-methyl-8-oxo-6-(trifluoromethyl)-7,8-dihydropyrimido[5,4-d]pyrimidin-4-yl)-3-fluorobenzonitrile] gave an Emax below 75% and an EC50 of 100 to 1000 nM.

Consider `Cn1c(C(F)(F)F)nc2c(-c3ccc(C#N)cc3F)nc(N3CC(Oc4cnc(C#N)cn4)C3)nc2c1=O` [Example 7, 5-((1-(4-(4-cyano-2-fluorophenyl)-7-methyl-8-oxo-6-(trifluoromethyl)-7,8-dihydropyrimido[5,4-d]pyrimidin-2-yl)azetidin-3-yl)oxy)pyrazine-2-carbonitrile], for which the Emax was below 75% and the EC50 lay within 100 to 1000 nM.

In turn, `Cn1c(C(F)(F)F)nc2c(-c3ccc(C#N)cc3F)nc(N3CC(Oc4cnn(C5CC5)c4)C3)nc2c1=O` [Example 1, 4-(2-(3-((1-cyclopropyl-1H-pyrazol-4-yl)oxy)azetidin-1-yl)-7-methyl-8-oxo-6-(trifluoromethyl)-7,8-dihydropyrimido[5,4-d]pyrimidin-4-yl)-3-fluorobenzonitrile] came in with an Emax of 75 to 110% and an EC50 below 10 nM.

Consider `Cn1c(C(F)(F)F)nc2c(-c3ccc(C#N)cc3F)nc(N3CC(Oc4cnccn4)C3)nc2c1=O` [Example 5, 3-fluoro-4-(7-methyl-8-oxo-2-(3-(pyrazin-2-yloxy)azetidin-1-yl)-6-(trifluoromethyl)-7,8-dihydropyrimido[5,4-d]pyrimidin-4-yl)benzonitrile], for which the Emax is below 75% and the EC50 fell in the range of 10 to 100 nM.
